In patent publication US7019007B2 (Syntex (U.S.A.) LLC, priority 2001, dated 2006):

Target: T1, CCR-3 receptor (Homo sapiens, UniProt P51677)
T1 construct: expressed in transfected cells; host or cells: L1.2 (murine pre-B lymphoma line) stably transfected with CCR-3
T1 sequence (P51677 1-355): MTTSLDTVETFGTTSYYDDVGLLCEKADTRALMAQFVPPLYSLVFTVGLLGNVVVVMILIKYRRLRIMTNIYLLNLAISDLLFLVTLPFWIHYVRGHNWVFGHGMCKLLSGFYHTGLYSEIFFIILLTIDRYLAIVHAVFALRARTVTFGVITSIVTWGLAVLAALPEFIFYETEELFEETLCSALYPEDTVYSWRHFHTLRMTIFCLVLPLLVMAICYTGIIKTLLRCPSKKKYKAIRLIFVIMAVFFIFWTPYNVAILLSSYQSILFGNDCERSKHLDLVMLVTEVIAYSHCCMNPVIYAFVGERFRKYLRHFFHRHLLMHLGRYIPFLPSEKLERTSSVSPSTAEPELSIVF
Assay: CCR-3 Receptor Binding Assay - In Vitro (inhibition of 125I eotaxin binding to CCR-3 L1.2 transfectant cells)
Details: inhibition of binding of 125I-eotaxin to CCR-3 L1.2 transfectant cells, 1 hour at room temperature
Procedure: The CCR-3 antagonistic activity of the compounds of the invention was determined by their ability to inhibit the binding of ^125 I eotaxin to CCR-3 L1.2 transfectant cells (see Ponath, P. D. et al., J. Exp. Med., Vol. 183, 2437–2448, (1996)).
The assay was performed in Costar 96-well polypropylene round bottom plates. Test compounds were dissolved in DMSO and then diluted with binding buffer (50 mM HEPES, 1 mM CaCl2, 5 mM MgCl2, 0.5% bovine serum albumin (BSA), 0.02% sodium azide, pH 7.24) such that the final DMSO concentration was 2%. 25 μl of the test solution or only buffer with DMSO (control samples) was added to each well, followed by the addition of 25 μl of ^125I-eotaxin ([…]) (NEX314, New England Nuclear, Boston, Mass.) and 1.5×10^5 of the CCR-3 L1.2 transfected cells in 25 μl binding buffer. The final reaction volume was 75 μl.
After incubating the reaction mixture for 1 hour at room temperature, the reaction was terminated by filtering the reaction mixture through polyethylenimine treated Packard Unifilter GF/C filter plate (Packard, Chicago, Ill.). The filters were washed four times with ice cold wash buffer containing 10 mm HEPES and 0.5M sodium chloride (pH 7.2) and dried at 65° C. for approximately 10 minutes. 25 μl/well of Microscint-20® scintillation fluid (Packard) was added and the radioactivity retained on the filters was determined by using the Packard TopCount®.

| SMILES | IC50 [nM] |
| --- | --- |
| CCOC(=O)CCNC(=O)N[C@@H]1CCC[C@H]1N1CCC(Cc2ccc(Cl)cc2)CC1 | 729 |
| CC(C)NC(=O)N[C@@H]1CCC[C@H]1N1CCC(Cc2ccc(Cl)cc2)CC1 | 885 |
| O=C(N[C@@H]1CCC[C@H]1N1CCC(Cc2ccc(Cl)cc2)CC1)C1CCCCC1 [Cyclohexanecarboxylic acid {(1R,2R)-2-[4-(4-chloro-benzyl)-piperidin-1-yl]-cyclopentyl}-amide] | 2910 |

The next compounds have a lower IC50 than those just listed; values first:

| IC50 [nM] | SMILES |
| --- | --- |
| 507 | CCCCNC(=O)N[C@@H]1CCC[C@H]1N1CCC(Cc2ccc(Cl)cc2)CC1 |
| 499 | C=CCNC(=O)N[C@@H]1CCC[C@H]1N1CCC(Cc2ccc(Cl)cc2)CC1 |
| 398 | O=C(NC1CCCCC1)N[C@@H]1CCC[C@H]1N1CCC(Cc2ccc(Cl)cc2)CC1 |
